Assays:
Assay type in all cases: biochemical
human PDE1B = biological target: T1, human PDE1B (Homo sapiens, UniProt Q01064); test: Ca2+-calmodulin dependent PDE enzyme assay (SPA), PDE1B; conditions: human PDE1B 0.074 nM, [3H]cAMP 47 nM, calmodulin 6 U/ml; read-out: IC50 (nM) PDE 1B
T1 construct: encoding full-length human PDE1B (NP_000915.1); HIS (C); made in house; host or cells: Sf9 (pIEX4)
From the text: (§1) The nucleotide sequences encoding full-length human PDE1A (NP_001003683.1), PDE1C (NP_005011.1), PDE5A (NP_001074.2), PDE7B (NP_061818.1) and PDE9A (NP_002597.1) are inserted into pFastBac1 (Invitrogen) vector with an N-terminal HIS tag. The nucleotide sequences encoding full-length human PDE4D (NP_006194.2) and catalytic domain (residue 641-1141) of PDE3A (NP_000912.3) are inserted into pFastBac1 (Invitrogen) vector with a C-terminal HIS tag. The nucleotide sequences encoding full-length human PDE8A (NP_002596.1) and PDE11A (AAI12394.1) are inserted into pFastBac1 (Invitrogen) vector with an N-terminal Flag tag. The nucleotide sequences encoding full-length human PDE10A (AAD32595.1) are inserted into pFastBac1 (Invitrogen) vector with a C-terminal Flag-His tag. The nucleotide sequences encoding full-length human PDE6A (NP_000431.2) and PDE6B (AAH00249.1) are inserted into pFastBacDual (Invitrogen) vector with an N-terminal HIS tag and N-terminal Flag tag, respectively, for production of PDE6A/6B dimer. […]
(§2) All 3′, 5′ cyclic nucleotide phosphodiesterase (PDE) enzyme activities are measured with a radiometric enzyme assay based on SPA detection system (scintillation proximity assay). […] Samples are read 12 hours later in a MICROBETA™ TRILUX® Counter. […] IC50 values are calculated by plotting the normalized data vs. log [compound] and fitting the data using a four parameter logistic equation. […]

human PDE4D = biological target: T2, human PDE4D (Homo sapiens, UniProt Q08499); test: PDE enzyme assay using [3H]cAMP as substrate (SPA), PDE4D; conditions: human PDE4D 0.021 nM, [3H]cAMP 47 nM
T2 construct: encoding full-length human PDE4D (NP_006194.2); HIS (C); made in house; host or cells: Sf9 (baculovirus, pFastBac1)
T2 sequence (Q08499 1-673 isoform Q08499-2): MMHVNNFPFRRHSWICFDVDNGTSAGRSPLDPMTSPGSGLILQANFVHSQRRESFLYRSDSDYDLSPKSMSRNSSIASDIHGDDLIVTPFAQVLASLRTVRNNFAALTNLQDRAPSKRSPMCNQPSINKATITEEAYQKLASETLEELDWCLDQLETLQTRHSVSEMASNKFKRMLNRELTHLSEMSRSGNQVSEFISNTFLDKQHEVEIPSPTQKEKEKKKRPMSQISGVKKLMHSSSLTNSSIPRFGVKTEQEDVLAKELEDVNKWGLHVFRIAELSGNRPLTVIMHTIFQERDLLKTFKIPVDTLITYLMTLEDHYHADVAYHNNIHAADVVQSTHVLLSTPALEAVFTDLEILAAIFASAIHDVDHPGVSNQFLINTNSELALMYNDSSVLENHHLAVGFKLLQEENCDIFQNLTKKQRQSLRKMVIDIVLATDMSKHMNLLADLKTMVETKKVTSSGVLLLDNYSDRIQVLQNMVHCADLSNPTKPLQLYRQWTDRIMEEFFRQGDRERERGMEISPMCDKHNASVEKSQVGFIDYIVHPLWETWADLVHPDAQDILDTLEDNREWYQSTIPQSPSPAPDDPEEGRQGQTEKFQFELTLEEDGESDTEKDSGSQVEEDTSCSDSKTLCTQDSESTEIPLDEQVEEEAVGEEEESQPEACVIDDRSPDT
From the text: as §1, with “tag.” for “tag. The nucleotide sequences encoding full-length human PDE6A (NP_000431.2) and PDE6B (AAH00249.1) are inserted into pFastBacDual (Invitrogen) vector with an N-terminal HIS tag and N-terminal Flag tag, respectively, for production of PDE6A/6B dimer.”
(§3) All 3′, 5′ cyclic nucleotide phosphodiesterase (PDE) enzyme activities are measured with a radiometric enzyme assay based on SPA detection system (scintillation proximity assay). […] Samples are read 12 hours later in a MICROBETA™ TRILUX® Counter. […] IC50 values are calculated by plotting the normalized data vs. log [compound] and fitting the data using a four parameter logistic equation.
(§4) The following phosphodiesterase activities are measured using [^3H]cAMP as reaction substrate: human PDE3A (catalytic domain), human PDE4D, human PDE7B and human PDE8A. […]

human PDE1C = biological target: T3, human PDE1C (Homo sapiens, UniProt Q14123); test: Ca2+-calmodulin dependent PDE enzyme assay (SPA), PDE1C; conditions: human PDE1C 0.0012 nM, [3H]cAMP 47 nM, calmodulin 6 U/ml; read-out: IC50 (nM) PDE 1C
T3 construct: full-length human PDE1A (NP_001003683.1), PDE1C (NP_005011.1); HIS (N); made in house; host or cells: Sf9 (baculovirus, pFastBac1)
From the text: as §1, §2

human PDE2A = biological target: T4, human PDE2A (Homo sapiens, UniProt O00408); test: PDE enzyme assay using [3H]cGMP as substrate (SPA), PDE2A; conditions: human PDE2A 0.2 nM, [3H]cGMP 80 nM
T4 construct: full-length human PDE1B (NP_000915.1) and PDE2A (NP_002590.1); HIS (C); made in house; host or cells: Sf9 (pIEX4)
T4 sequence (O00408 whole entry): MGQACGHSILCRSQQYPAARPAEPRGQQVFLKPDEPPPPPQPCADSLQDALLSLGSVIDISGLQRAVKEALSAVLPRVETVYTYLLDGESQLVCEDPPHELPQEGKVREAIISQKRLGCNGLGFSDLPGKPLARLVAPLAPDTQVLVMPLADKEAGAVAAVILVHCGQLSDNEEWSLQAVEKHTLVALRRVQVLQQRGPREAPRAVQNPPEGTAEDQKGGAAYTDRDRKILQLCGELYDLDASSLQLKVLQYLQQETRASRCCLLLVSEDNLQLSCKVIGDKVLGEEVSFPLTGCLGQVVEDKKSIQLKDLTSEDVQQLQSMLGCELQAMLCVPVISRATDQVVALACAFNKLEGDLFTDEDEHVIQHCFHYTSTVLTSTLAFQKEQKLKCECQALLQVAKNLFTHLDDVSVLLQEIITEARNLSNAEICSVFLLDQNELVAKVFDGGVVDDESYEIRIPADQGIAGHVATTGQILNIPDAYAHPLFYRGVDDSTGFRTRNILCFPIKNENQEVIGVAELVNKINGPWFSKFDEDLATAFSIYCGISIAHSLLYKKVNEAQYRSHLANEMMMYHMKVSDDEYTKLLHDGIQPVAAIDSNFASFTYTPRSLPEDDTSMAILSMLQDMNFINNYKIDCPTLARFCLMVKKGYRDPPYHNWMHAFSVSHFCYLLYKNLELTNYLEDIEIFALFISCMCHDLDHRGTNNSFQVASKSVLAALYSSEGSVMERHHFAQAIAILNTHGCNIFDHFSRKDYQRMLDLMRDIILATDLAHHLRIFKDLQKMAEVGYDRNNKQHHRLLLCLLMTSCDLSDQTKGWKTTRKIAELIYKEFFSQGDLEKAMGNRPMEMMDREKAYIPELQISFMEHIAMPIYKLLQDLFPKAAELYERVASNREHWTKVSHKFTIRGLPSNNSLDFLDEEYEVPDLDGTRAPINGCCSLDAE
From the text: as §1, with “tag.” for “tag. The nucleotide sequences encoding full-length human PDE6A (NP_000431.2) and PDE6B (AAH00249.1) are inserted into pFastBacDual (Invitrogen) vector with an N-terminal HIS tag and N-terminal Flag tag, respectively, for production of PDE6A/6B dimer.”
as §3
(§5) The following phosphodiesterase activities are measured using [^3H]cGMP as reaction substrate: human PDE2A, human PDE5A, human PDE6A/6B, human PDE9A, human PDE10A and human PDE11A. […]

human PDE8A = biological target: T5, human PDE8A (Homo sapiens, UniProt O60658); test: PDE enzyme assay using [3H]cAMP as substrate (SPA), PDE8A; conditions: human PDE8A 0.06 nM, [3H]cAMP 47 nM
T5 construct: encoding full-length human PDE8A (NP_002596.1); Flag (N); made in house; host or cells: Sf9 (baculovirus, pFastBac1)
From the text: as §1, with “tag.” for “tag. The nucleotide sequences encoding full-length human PDE6A (NP_000431.2) and PDE6B (AAH00249.1) are inserted into pFastBacDual (Invitrogen) vector with an N-terminal HIS tag and N-terminal Flag tag, respectively, for production of PDE6A/6B dimer.”
as §3, §4

human PDE10A = biological target: T6, human PDE10A (Homo sapiens, UniProt Q9Y233); test: PDE enzyme assay using [3H]cGMP as substrate (SPA), PDE10A; conditions: human PDE10A 0.03 nM, [3H]cGMP 80 nM
T6 construct: encoding full-length human PDE10A (AAD32595.1); Flag-His (C); made in house; host or cells: Sf9 (baculovirus, pFastBac1)
T6 sequence (Q9Y233 1-779 isoform Q9Y233-1): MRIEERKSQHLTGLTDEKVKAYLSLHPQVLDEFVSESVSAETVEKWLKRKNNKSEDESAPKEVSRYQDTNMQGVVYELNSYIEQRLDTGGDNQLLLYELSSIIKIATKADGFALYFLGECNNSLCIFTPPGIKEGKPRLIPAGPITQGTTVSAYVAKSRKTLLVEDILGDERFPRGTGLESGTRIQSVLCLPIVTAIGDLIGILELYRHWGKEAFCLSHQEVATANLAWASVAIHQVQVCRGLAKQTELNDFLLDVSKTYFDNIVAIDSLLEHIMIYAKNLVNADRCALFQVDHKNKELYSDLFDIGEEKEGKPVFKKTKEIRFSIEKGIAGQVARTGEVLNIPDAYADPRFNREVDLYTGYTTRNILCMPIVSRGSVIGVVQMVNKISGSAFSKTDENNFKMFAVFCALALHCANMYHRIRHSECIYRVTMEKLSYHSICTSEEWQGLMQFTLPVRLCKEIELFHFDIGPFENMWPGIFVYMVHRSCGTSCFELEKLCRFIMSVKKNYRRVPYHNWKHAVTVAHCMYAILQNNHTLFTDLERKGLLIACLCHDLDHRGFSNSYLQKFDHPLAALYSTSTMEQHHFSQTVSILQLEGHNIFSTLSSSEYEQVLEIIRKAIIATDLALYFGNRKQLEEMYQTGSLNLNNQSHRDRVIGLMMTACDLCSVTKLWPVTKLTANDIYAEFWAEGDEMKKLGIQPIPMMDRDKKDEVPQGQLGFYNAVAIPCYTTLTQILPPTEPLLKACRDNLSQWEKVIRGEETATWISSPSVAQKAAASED
From the text: as §1, with “tag.” for “tag. The nucleotide sequences encoding full-length human PDE6A (NP_000431.2) and PDE6B (AAH00249.1) are inserted into pFastBacDual (Invitrogen) vector with an N-terminal HIS tag and N-terminal Flag tag, respectively, for production of PDE6A/6B dimer.”
as §3, §5

human PDE11A = biological target: T7, human PDE11A (Homo sapiens, UniProt Q9HCR9); test: PDE enzyme assay using [3H]cGMP as substrate (SPA), PDE11A; conditions: human PDE11A 0.03 nM, [3H]cGMP 80 nM
T7 construct: full-length human PDE8A (NP_002596.1) and PDE11A (AAI12394.1); Flag (N); made in house; host or cells: Sf9 (baculovirus, pFastBac1)
T7 sequence (Q9HCR9 whole entry): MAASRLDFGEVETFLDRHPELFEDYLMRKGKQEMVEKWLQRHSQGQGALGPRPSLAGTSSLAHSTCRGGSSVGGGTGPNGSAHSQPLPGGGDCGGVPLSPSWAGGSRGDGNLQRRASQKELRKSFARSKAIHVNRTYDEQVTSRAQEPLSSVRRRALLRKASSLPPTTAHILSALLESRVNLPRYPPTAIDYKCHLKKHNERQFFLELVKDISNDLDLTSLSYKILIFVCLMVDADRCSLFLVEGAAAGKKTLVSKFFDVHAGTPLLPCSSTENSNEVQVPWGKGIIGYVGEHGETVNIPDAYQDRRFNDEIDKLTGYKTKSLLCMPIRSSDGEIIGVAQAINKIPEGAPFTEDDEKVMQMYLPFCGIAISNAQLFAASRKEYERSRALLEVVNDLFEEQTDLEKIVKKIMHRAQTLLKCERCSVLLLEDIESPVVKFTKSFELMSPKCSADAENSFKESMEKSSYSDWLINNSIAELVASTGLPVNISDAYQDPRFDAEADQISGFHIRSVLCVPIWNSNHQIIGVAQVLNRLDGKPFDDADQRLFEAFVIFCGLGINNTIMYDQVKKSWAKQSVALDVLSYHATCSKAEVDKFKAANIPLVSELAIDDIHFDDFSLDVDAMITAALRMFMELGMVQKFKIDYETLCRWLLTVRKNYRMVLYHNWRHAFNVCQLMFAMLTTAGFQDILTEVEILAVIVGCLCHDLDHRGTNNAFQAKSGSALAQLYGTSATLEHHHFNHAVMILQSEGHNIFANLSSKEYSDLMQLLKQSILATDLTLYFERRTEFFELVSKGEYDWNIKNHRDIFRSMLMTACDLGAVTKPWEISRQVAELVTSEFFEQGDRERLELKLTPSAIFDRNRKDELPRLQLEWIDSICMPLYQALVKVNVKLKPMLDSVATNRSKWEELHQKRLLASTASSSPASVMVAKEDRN
From the text: as §1, with “tag.” for “tag. The nucleotide sequences encoding full-length human PDE6A (NP_000431.2) and PDE6B (AAH00249.1) are inserted into pFastBacDual (Invitrogen) vector with an N-terminal HIS tag and N-terminal Flag tag, respectively, for production of PDE6A/6B dimer.”
as §3, §5

human PDE9A = biological target: T8, human PDE9A (Homo sapiens, UniProt O76083); test: PDE enzyme assay using [3H]cGMP as substrate (SPA), PDE9A; conditions: human PDE9A 1 nM, [3H]cGMP 20 nM
T8 construct: full-length human PDE1A (NP_001003683.1), PDE1C (NP_005011.1), PDE5A (NP_001074.2), PDE7B (NP_061818.1) and PDE9A (NP_002597.1); HIS (N); made in house; host or cells: Sf9 (baculovirus, pFastBac1)
T8 sequence (O76083 whole entry): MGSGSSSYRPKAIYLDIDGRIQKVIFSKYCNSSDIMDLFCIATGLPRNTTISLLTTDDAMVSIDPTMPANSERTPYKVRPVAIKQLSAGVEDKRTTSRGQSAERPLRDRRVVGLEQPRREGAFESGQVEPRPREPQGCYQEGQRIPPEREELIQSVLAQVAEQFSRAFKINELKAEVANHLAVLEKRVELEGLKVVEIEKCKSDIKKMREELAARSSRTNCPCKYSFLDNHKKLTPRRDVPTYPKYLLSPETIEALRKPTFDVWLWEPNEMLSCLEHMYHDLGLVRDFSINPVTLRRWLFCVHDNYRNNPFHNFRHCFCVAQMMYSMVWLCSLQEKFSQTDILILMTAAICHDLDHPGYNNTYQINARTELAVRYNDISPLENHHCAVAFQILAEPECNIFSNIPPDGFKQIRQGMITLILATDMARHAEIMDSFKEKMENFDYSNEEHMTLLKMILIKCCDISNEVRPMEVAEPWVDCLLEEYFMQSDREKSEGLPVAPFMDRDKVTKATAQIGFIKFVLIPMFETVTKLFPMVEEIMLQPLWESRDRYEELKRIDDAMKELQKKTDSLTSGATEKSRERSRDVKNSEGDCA
From the text: as §1, with “tag.” for “tag. The nucleotide sequences encoding full-length human PDE6A (NP_000431.2) and PDE6B (AAH00249.1) are inserted into pFastBacDual (Invitrogen) vector with an N-terminal HIS tag and N-terminal Flag tag, respectively, for production of PDE6A/6B dimer.”
as §3, §5

human PDE1A = biological target: T9, human PDE1A (Homo sapiens, UniProt P54750); test: Ca2+-calmodulin dependent PDE enzyme assay (SPA), PDE1A; conditions: human PDE1A 0.25 nM, [3H]cAMP 47 nM, calmodulin 6 U/ml; read-out: IC50 (nM) PDE 1A
T9 construct: encoding full-length human PDE1A (NP_001003683.1); HIS (N); made in house; host or cells: Sf9 (baculovirus, pFastBac1)
From the text: as §1, §2

human PDE7B = biological target: T10, human PDE7B (Homo sapiens, UniProt Q9NP56); test: PDE enzyme assay using [3H]cAMP as substrate (SPA), PDE7B; conditions: human PDE7B 0.5 nM, [3H]cAMP 47 nM
T10 construct: full-length human PDE1A (NP_001003683.1), PDE1C (NP_005011.1), PDE5A (NP_001074.2), PDE7B (NP_061818.1); HIS (N); made in house; host or cells: Sf9 (baculovirus, pFastBac1)
T10 sequence (Q9NP56 whole entry): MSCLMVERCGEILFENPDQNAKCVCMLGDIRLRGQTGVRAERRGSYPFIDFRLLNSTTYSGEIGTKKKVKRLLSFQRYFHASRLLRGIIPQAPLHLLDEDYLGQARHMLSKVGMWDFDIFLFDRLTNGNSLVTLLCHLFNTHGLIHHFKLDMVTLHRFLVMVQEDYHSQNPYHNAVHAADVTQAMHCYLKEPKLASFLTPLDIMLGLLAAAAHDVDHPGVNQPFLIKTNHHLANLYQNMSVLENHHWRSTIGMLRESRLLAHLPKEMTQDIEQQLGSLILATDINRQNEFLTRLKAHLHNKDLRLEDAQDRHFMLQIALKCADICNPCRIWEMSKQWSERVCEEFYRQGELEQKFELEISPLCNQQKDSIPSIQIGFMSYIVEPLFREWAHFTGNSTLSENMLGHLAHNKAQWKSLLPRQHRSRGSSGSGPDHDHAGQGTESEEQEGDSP
From the text: as §1, with “tag.” for “tag. The nucleotide sequences encoding full-length human PDE6A (NP_000431.2) and PDE6B (AAH00249.1) are inserted into pFastBacDual (Invitrogen) vector with an N-terminal HIS tag and N-terminal Flag tag, respectively, for production of PDE6A/6B dimer.”
as §3, §4

human PDE6A/6B = biological target: T11, human PDE6A/6B (Homo sapiens, UniProt P16499+P35913); test: PDE enzyme assay using [3H]cGMP as substrate (SPA), PDE6A/6B dimer; conditions: human PDE6AB dimer 5 nM, [3H]cGMP 80 nM; read-out: IC50 (nM) PDE 6AB
T11 construct: encoding full-length human PDE6A (NP_000431.2) and PDE6B (AAH00249.1); HIS (N); Flag (N); made in house; host or cells: Sf9 (baculovirus, pFastBacDual)
From the text: as §1, with “tag.” for “tag. The nucleotide sequences encoding full-length human PDE6A (NP_000431.2) and PDE6B (AAH00249.1) are inserted into pFastBacDual (Invitrogen) vector with an N-terminal HIS tag and N-terminal Flag tag, respectively, for production of PDE6A/6B dimer.”
as §3, §5

human PDE5A = biological target: T12, human PDE5A (Homo sapiens, UniProt O76074); test: PDE enzyme assay using [3H]cGMP as substrate (SPA), PDE5A; conditions: human PDE5A 0.002 nM, [3H]cGMP 80 nM
T12 construct: full-length human PDE1A (NP_001003683.1), PDE1C (NP_005011.1), PDE5A (NP_001074.2); HIS (N); made in house; host or cells: Sf9 (baculovirus, pFastBac1)
From the text: as §1, with “tag.” for “tag. The nucleotide sequences encoding full-length human PDE6A (NP_000431.2) and PDE6B (AAH00249.1) are inserted into pFastBacDual (Invitrogen) vector with an N-terminal HIS tag and N-terminal Flag tag, respectively, for production of PDE6A/6B dimer.”
as §3, §5

[1] = biological target: T13, human PDE3A (catalytic domain) (Homo sapiens, UniProt Q14432); test: PDE enzyme assay using [3H]cAMP as substrate (SPA), PDE3A; conditions: human PDE3A catalytic domain 0.008 nM, [3H]cAMP 47 nM
T13 construct: catalytic domain (residue 641-1141) of PDE3A (NP_000912.3); HIS (C); made in house; host or cells: Sf9 (baculovirus, pFastBac1)
T13 sequence (Q14432 641-1141): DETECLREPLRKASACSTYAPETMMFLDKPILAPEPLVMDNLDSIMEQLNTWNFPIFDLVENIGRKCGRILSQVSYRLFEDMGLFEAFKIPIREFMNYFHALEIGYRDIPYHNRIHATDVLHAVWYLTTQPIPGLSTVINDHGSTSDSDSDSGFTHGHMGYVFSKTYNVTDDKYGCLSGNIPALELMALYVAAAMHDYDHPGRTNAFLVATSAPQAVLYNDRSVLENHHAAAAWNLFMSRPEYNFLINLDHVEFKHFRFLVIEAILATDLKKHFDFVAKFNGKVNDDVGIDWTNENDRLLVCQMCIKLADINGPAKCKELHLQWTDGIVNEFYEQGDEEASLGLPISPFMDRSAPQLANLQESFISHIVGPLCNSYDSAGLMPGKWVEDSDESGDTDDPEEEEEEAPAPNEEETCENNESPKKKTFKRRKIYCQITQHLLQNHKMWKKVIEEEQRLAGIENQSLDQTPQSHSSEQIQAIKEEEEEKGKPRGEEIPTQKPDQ
From the text: as §1, with “tag.” for “tag. The nucleotide sequences encoding full-length human PDE6A (NP_000431.2) and PDE6B (AAH00249.1) are inserted into pFastBacDual (Invitrogen) vector with an N-terminal HIS tag and N-terminal Flag tag, respectively, for production of PDE6A/6B dimer.”
as §3, §4

IC50 (human PDE1B): 16.3 ± 9.1 nM | IC50 (human PDE4D): 11900 ± 1580 nM | IC50 (human PDE1C): 2.65 ± 0.9 nM | IC50 (human PDE2A): > 10000 nM | IC50 (human PDE8A): > 10000 nM | IC50 (human PDE10A): 9340 nM | IC50 (human PDE11A): 389 ± 179 nM | IC50 (human PDE9A): > 10000 nM | IC50 (human PDE1A): 10.9 ± 2.6 nM | IC50 (human PDE7B): 4170 nM | IC50 (human PDE6A/6B): 2460 ± 247 nM | IC50 (human PDE5A): 3130 nM | IC50 [1]: > 100000 nM
Compound: CCCCn1c(=O)c2nnc(C3(C)CC3)n2c2ncccc21 [Example 1, 5-butyl-9-(1-methylcyclopropyl)pyrido[3,2-e][1,2,4]triazolo[4,3-a]pyrazin-6(5H)-one]

Reference: patent US10138244B2, “Triazolopyrazinone derivative useful as a human PDE1 inhibitor” (Eli Lilly and Company, priority 2016, dated 2018)
